# Where two headings read alike, the source gives them in different places.
# Experiments:
# [1] = test system: S. epidermidis; assay type: cell-based, Staphylococcus epidermidis
# [2] = tetrahydrofuran/methanol solvent systems
# [3] = test system: Pseudomonas aeruginosa; assay: Zones of inhibition of treated catheter segments on seeded trypticase soy agar plates, 24 hours
# [4] = test system: S. epidermidis; assay: Minimum inhibitory concentration in Trypticase Soy Broth, synergy (fractional inhibitory concentration); assay type: cell-based, Staphylococcus epidermidis
# [5] = 10-20 passages, inoculum 10^4 cfu/ml
# [6] = catheter treated with 2% bismuth salt
# [7] = catheter treated with 2% bismuth salt + 3% minocycline
# [8] = 10 transfers, inoculum 10^6 cfu/ml
Compound,"INCREASE IN MIC (fold) [1, 5]",Zones of Inhibition Against Pseudomonas aeruginosa (mm) 2% Bismuth Salt [3],Zones of Inhibition Against Pseudomonas aeruginosa (mm) 2% Bismuth Salt + 3% Minocycline [3],other results
"CCn1cc(C(=O)O)c(=O)c2cc(F)c(N3CCNCC3)cc21 [Norfloxacin (Nf), norfloxacin]",40 fold,–,–,upper limit incorporated (low solubility in tetrahydrofuran/methanol) [2]: about 0.5 percent (w/v)
bismuth salicylate,–,0 mm,17 mm,–
bismuth sulfadiazine,–,–,–,"Zones of Inhibition Against Pseudomonas aeruginosa (mm) 2% Bismuth Salt [3, 6]: 6.5 mm; Zones of Inhibition Against Pseudomonas aeruginosa (mm) 2% Bismuth Salt + 3% Minocycline [3, 7]: 15.5 mm"
"O=C([O-])c1ccccc1.O=C([O-])c1ccccc1.O=C([O-])c1ccccc1.[Bi+3] [Bismuth benzoate, bismuth benzoate]",–,0 mm,18 mm,–
"NC[C@H]1O[C@H](O[C@H]2[C@H](O)[C@@H](O[C@H]3O[C@H](CO)[C@@H](O)[C@H](N)[C@H]3O)[C@H](N)C[C@@H]2N)[C@H](N)C[C@@H]1O [Tobramycin (Tb), tobramycin]",20 fold,–,–,–
"Oc1cc(Cl)ccc1Oc1ccc(Cl)cc1Cl [Triclosan (T), triclosan]",7 fold,–,–,"MIC ([4]; Staphylococcus epidermidis, 24 h): 0.35 µg/mL; INCREASE IN MIC (fold) [1, 8]: 7 fold"
"O=C([O-])CC(O)(CC(=O)[O-])C(=O)[O-].[Bi+3] [Bismuth citrate, bismuth citrate]",–,0 mm,17 mm,–
bismuth mandelate,–,0 mm,18.5 mm,–
"O=[N+]([O-])[O-].O=[N+]([O-])[O-].O=[N+]([O-])[O-].[Bi+3] [Bismuth Nitrate, bismuth nitrate]",–,–,–,"Zones of Inhibition Against Pseudomonas aeruginosa (mm) 2% Bismuth Salt [3, 6]: 0 mm; Zones of Inhibition Against Pseudomonas aeruginosa (mm) 2% Bismuth Salt + 3% Minocycline [3, 7]: 15 mm"
"CN(C)c1ccc(O)c2c1C[C@H]1C[C@H]3[C@H](N(C)C)C(O)=C(C(N)=O)C(=O)[C@@]3(O)C(O)=C1C2=O [Minocycline (M), minocycline]",2 fold,–,–,"INCREASE IN MIC (fold) [1, 8]: 4 fold"
"CC(=O)O.CC(=O)O.NC(=N\CCCCCC/N=C(N)/N=C(\N)Nc1ccc(Cl)cc1)/N=C(\N)Nc1ccc(Cl)cc1 [Chlorhexidine (CHX), chlorhexidine diacetate]",–,–,–,MIC ([4]; inoculum of 10^4 cfu/ml): 0.5 µg/mL; INCREASE IN MIC (fold) [1]: 2 fold; MIC (μg/ml) AFTER PASSAGE [1]: 1.0 µg/mL; MIC (μg/ml) BEFORE PASSAGE [1]: 0.5 µg/mL
"[Bi+3].[O-]B([O-])[O-] [Bismuth borate, bismuth borate]",–,0 mm,13 mm,–
polyhexamethylenebiguanide [PHMB],–,–,–,INCREASE IN MIC (fold) [1]: 1.0 fold; MIC (μg/ml) AFTER PASSAGE [1]: 0.31 µg/mL; MIC (μg/ml) BEFORE PASSAGE [1]: 0.31 µg/mL
"CO[C@H]1/C=C/O[C@@]2(C)Oc3c(C)c(O)c4c(O)c(c(/C=N/N5CCN(C)CC5)c(O)c4c3C2=O)NC(=O)/C(C)=C\C=C\[C@H](C)[C@H](O)[C@@H](C)[C@@H](O)[C@@H](C)[C@H](OC(C)=O)[C@@H]1C [Rifampin (R), rifampin]","25,000 fold",–,–,–
"CC(=O)[O-].CC(=O)[O-].CC(=O)[O-].[Bi+3] [Bismuth acetate, bismuth acetate]",–,0 mm,17 mm,–
bismuth palmitate,–,0 mm,18.5 mm,–

# Reference: US6582719B2, “Combinations of antiseptic and antibiotic agents that inhibit the development of resistant microorganisms” (priority 2001, dated 2003)
